“Also recorded” adds a separate entry of the source. Counter-ions that a name gives are not always drawn. Like-named read-outs stand apart in the source and are kept apart here.
Legend:
[1] = test system: osteogenically differentiating human embryonic stem cells and fibroblasts; experiment: hESTo biostatistical prediction model (embryotoxicity class); details: for Embryotoxicity classification by the biostatistical model, in words: hESTo, skeletal differentiation
Source text: (§1) Half-maximal inhibitory doses of cytotoxicity (IC50) and osteogenic differentiation (ID50) were taken from concentration–response curves generated in GraphPad Prism (9.2., GraphPad Software Inc., San Diego, CA, USA) with the “nonlinear regression” function). A biostatistical prediction model based on linear discriminant functions was employed to classify the test chemical into one out of three embryotoxicity categories (strong, weak, and non-embryotoxic). In double combination analyses, a t-test was performed comparing combination to single constituent ID50. For triple combination analyses, a one-way ANOVA with Dunnett’s multiple comparison test (single constituent vs. combination) using GraphPad Prism was conducted. A p-value below 0.05 was considered significant. Heatmaps for double and triple exposures were generated in GraphPad Prism 9.2. Calcium-to-MTT ratios were calculated in Microsoft Excel and imported to ClustVis to generate a principal-component-analysis-based clustered heatmap.
Half-maximal inhibitory concentrations for cell viability (IC50 hESC) and differentiation (ID50 Ca^2+ hESC) were established for penicillin G and all-trans retinoic acid from concentration–response curves. The hESTo then compares these two endpoints to the half-maximal inhibitory concentration for cell viability resulting from exposure of fibroblast cells to the same test compound (IC50 MTT hFF) (Figure 3).

[2] = test system: osteogenically differentiating H9 hESCs; experiment: hESTo calcium assay, osteogenic differentiation of hESCs; type: cell-based, human; details: for IC50: Homo sapiens, 480 h, read-out: ID50 Ca2+ hESC (half-maximal inhibitory concentration of differentiation)
Experimental: Differentiation was induced from hESC cultures through the addition of a control differentiation medium (CDM) composed of DMEM, 15% FBS (Atlanta Biologicals, Flowery Branch, GA, USA), 1% (v/v) non-essential amino acids, 50 U/mL penicillin, 50 µg/mL streptomycin, and 0.1 mM β-mercaptoethanol. Five days after this initial medium change, CDM was supplemented with 1.2 × 10^−7 M 1,25α(OH)2 vitamin D3 (Calbiochem, Burlington, MA, USA), 0.1 mM β-glycerophosphate, and 20.8 µg/mL ascorbic acid.
(§2) Cells were cultured with concomitant chemical treatment in a double-blind, vehicle-controlled study. […] 241571), and urethane (Sigma Aldrich, cat. no. U2500) were purchased from the indicated companies. Stock solutions were made in DMEM or dimethylsulfoxide, depending on chemical solubility, sonicated when necessary, sterile filtered (0.1 µm), and stored at −20 °C. For liquids, concentrations were calculated from their density. Final dilutions were made in appropriate cell culture medium upon additional sonication of the stock after thawing. Chemical cell treatment started on day 0 of culture/differentiation and continued through day 20 in both H9 hESCs and hFF cells. Medium, including chemical dilutions, were made fresh and changed every other day. All exposures were performed in biological triplicate, each containing technical quintuplicates.
Quantification of calcium in the extracellular matrix of the cultures was performed using a calcium assay normalized to protein content. First, cells were lysed with radio-immunoprecipitation buffer (1% NP40, 0.5% sodium deoxycholate, 0.1% sodium dodecyl sulfate in PBS) on day 20 of cellular differentiation. The remaining matrix was dissolved with 1 N HCl and collected. Both lysates were assayed with Arsenazo III (Genzyme), and absorbance was measured at 655 nm (iMark microplate reader; Bio-Rad Laboratories, Hercules, CA, USA). Absorbances were compared to a CaCl2 standard, and total calcium content was normalized to the total protein content of the sample determined by a Lowry assay, measured against a bovine serum albumin standard curve. The Lowry assay was read at 750 nm (iMark microplate reader; Bio-Rad Laboratories) after a 15 min micro-shake incubation. Calculation of final normalized calcium content was performed according to a previously published formula [33].
as §1

[3] = hESTo MTT assay, hESC viability; details: human
Experimental: (§3) Cells were cultured with concomitant chemical treatment in a double-blind, vehicle-controlled study. […] U2500) were purchased from the indicated companies. […] For liquids, concentrations were calculated from their density. Final dilutions were made in appropriate cell culture medium upon additional sonication of the stock after thawing. Chemical cell treatment started on day 0 of culture/differentiation and continued through day 20 in both H9 hESCs and hFF cells. Medium, including chemical dilutions, were made fresh and changed every other day. All exposures were performed in biological triplicate, each containing technical quintuplicates.
(§4) Viability response to constituent exposure was determined by 3-[4,5-dimethylthiazol-2yl]-2,5-diphenylterazolium bromide (MTT) assay. Cells were incubated with MTT (5 mg/mL) at 37 °C for 2 h. Following incubation, the supernatant was removed and replaced with 0.04 mol/L HCl in isopropanol. The plate was placed on a shaker for 15 min to dissolve aggregates. The optical density of the solution was read at 595 nm (iMark microplate reader; BioRad).
as §1

[4] = test system: human foreskin fibroblasts (hFF-1); experiment: hESTo MTT assay, fibroblast viability; details: for IC50: Homo sapiens, HFF-1, read-out: IC50 MTT hFF
Experimental: Human embryonic stem cells of the line H9 (WiCell) were seeded on Matrigel-coated culture plates and cultured in mTeSR1 medium (Stem Cell Technologies, Seattle, WA, USA) at 37 °C with 5% CO2. Approximately every four days, colonies were treated with accutase for 2–4 min at room temperature to dislodge colonies from the plastic and passaged into fresh Matrigel-coated wells. Human foreskin fibroblasts (hFF-1, American Type Culture Collection, Manassas, VA, USA, cat.no. SCRC-1041), were cultured on 0.1% gelatin-coated 6-well plates in Dulbecco’s Modified Eagle Medium (DMEM) with 10% fetal bovine serum, 1% (v/v) non-essential amino acids, 50 U/mL penicillin, and 50 µg/mL streptomycin at 37 °C in a controlled humidified 5% CO2 incubator. Upon 70% confluency, hFFs were passaged at a 1:6 ratio using phosphate-buffered saline (PBS) washes and 2.5% Trypsin/EDTA every two to four days. While in culture, all cells were routinely checked for bacterial, yeast, and microbial contamination using an inverted microscope and tested for mycoplasma using a PCR-based detection kit (abcam, Fremont, CA, USA, ab289834).
as §2, §4, §1

H9 hESCs = experiment: hESTo MTT assay, hESC viability
Experimental: as §3, §4, §1

[5] = human
Experimental: (C) Table listing IC50 and ID50 values, calculated via GraphPad Prism and expressed as µg/mL, embryotoxicity classes calculated according to Genschow et al. [24], and content per cigarette (cig) or gram tobacco as well as actual and calculated plasma concentrations assuming a plasma volume of 3000 mL. […] ID50 = half-maximal inhibitory concentration of differentiation. IC50 = half-maximal concentration of cytotoxicity. hESC, human embryonic stem cell; hFF, human foreskin fibroblast; ND, not determined from the literature [37, 38, 39, 40, 41, 42, 43, 44, 45, 46, 47, 48, 49].

cultured rat embryos = test system: cultured rat embryos; design: method as in PMID 8079346; details: cited from earlier work
[6] = in vivo; cited from earlier work
other aquatic species = details: cited from earlier work
[7] = H9 hESC, exposure day 0 through day 20, calcium normalized to protein

SMILES	Embryotoxicity classification by the biostatistical model, in words [1]	IC50 at 20 days [3] [µg/mL]	IC50 [4] [µg/mL]	IC50 [2, 7] [µg/mL]	further results
CC=O [Acetaldehyde]	strongly developmentally osteotoxic	–	–	–	–
C=CC=O [Acrolein, acrolein]	strongly developmentally osteotoxic	–	–	–	–
C=CC(N)=O [Acrylamide, acrylamide]	non-embryotoxic	–	–	–	Effect on H9 hESC differentiation potential / calcification, in words [2]: caused reductions in cell viability as well as calcification but in very high concentration ranges
CC1=C(/C=C/C(C)=C/C=C/C(C)=C/C(=O)O)C(C)(C)CCC1 [All-trans retinoic acid, all-trans retinoic acid, reference compound]	–	0.036	0.061	–	–
c1ccc2cc3c(ccc4ccccc43)cc2c1 [Benz[a]anthracene, benz[a]anthracene]	non-embryotoxic	–	–	–	ID50 Ca2+ hESC (half-maximal inhibitory concentration of differentiation) [2, 7]: 239.5 µg/mL; IC50 MTT hESC (half-maximal concentration of cytotoxicity) (H9 hESCs; H9 hESC, exposure day 0 through day 20): 337.3 µg/mL; Effect on hFF cell viability, in words ([4]; tested concentration range up to 1000 µg/mL): did not produce a change in cell viability
c1ccc2c(c1)cc1ccc3cccc4ccc2c1c34 [Benzo[a]pyrene, benzo[a]pyrene]	–	52.9 ± 428	1020 ± 653	2.11 ± 0.65	Calculated plasma concentration [5]: 0.000036 µg/mL
c1ccc2c(c1)-c1cccc3c1c-2cc1ccccc13 [Benzo[b]fluoranthene, benzo[b]fluoranthene]	neither chemical classified as developmentally osteotoxic	61 ± 14.8	110 ± 76.1	25.8 ± 7.24	–
Oc1ccccc1O [Catechol, catechol]	strongly embryotoxic; also recorded: strongly developmentally osteotoxic	0.071 ± 0.023	9.29 ± 1.71	–	IC50 [2]: 0.258 ± 0.166 µg/mL; hESC differentiation endpoint relative to solvent control ([2]; around 0.882 µg/mL): below 25%; hESC cytotoxicity endpoint relative to solvent control (H9 hESCs; around 0.882 µg/mL): below 25%; Concentration above which hFF cell viability changed [4]: above 0.882 µg/mL; Half-maximal lethality (cultured rat embryos): 50 to 100 µM
CN1C(=O)CC[C@H]1c1cccnc1 [Cotinine, cotinine]	non-embryotoxic	341 ± 72.9	497 ± 139	272 ± 82.8	Approx. plasma concentration [6]: 0.068 to 0.3 µg/mL
O=c1ccc2ccccc2o1 [Coumarin, coumarin]	strongly developmentally osteotoxic	0.013	0.114	0.024 ± 0.009	–
CN1CCC(c2cccnc2)C1 (stereo not drawn) [Isonicotine, isonicotine]	neither chemical classified as developmentally osteotoxic	–	–	–	–
CN1CCC[C@H]1c1cccnc1 [Nicotine, nicotine]	non-embryotoxic	> 1000	> 1000	633 ± 2350	Effect on H9 hESC differentiation potential / calcification, in words ([2]; all tested concentration ranges): a decrease in calcification was seen in the higher concentrations
CC1(C)S[C@@H]2[C@H](NC(=O)Cc3ccccc3)C(=O)N2[C@H]1C(=O)O [Penicillin G, penicillin G sodium salt, reference compound]	–	> 1000	> 1000	–	Embryotoxicity class ([1]; biostatistical model of Genschow et al. from ID50 hESC, IC50 hESC, IC50 hFF): I
c1ccc2ncccc2c1 [Quinoline, quinoline]	weakly developmentally osteotoxic	2.65 ± 0.51	59.4 ± 19.1	2.27 ± 0.76	Calculated plasma concentration [5]: 0.000045 µg/mL; Median lethal dose (other aquatic species): 11 µg/mL
CCOC(N)=O [Urethane, urethane]	non-embryotoxic	> 1000	> 1000	> 1000	–
